# ChEMBL document CHEMBL4699440, “Comprehensive review on the anti-bacterial activity of 1,2,3-triazole hybrids” (Eur J Med Chem, 2019)
# Key:
# [1] = tested on: Escherichia coli; assay: Antibacterial activity against Escherichia coli assessed as inhibition zone at 10 mg/ml; format: functional; conditions: read-out: IZ
# [2] = tested on: Klebsiella pneumoniae; assay: Antibacterial activity against Klebsiella pneumoniae assessed as inhibition zone at 10 mg/ml; format: functional; conditions: read-out: IZ
# [3] = tested on: Proteus vulgaris; assay: Antibacterial activity against Proteus vulgaris assessed as inhibition zone at 10 mg/ml; format: functional; conditions: read-out: IZ
# [4] = tested on: Salmonella typhi; assay: Antibacterial activity against Salmonella typhi assessed as inhibition zone at 10 mg/ml; format: functional, Salmonella enterica subsp. enterica serovar Typhi; conditions: Salmonella enterica, read-out: IZ
# [5] = tested on: Pseudomonas aeruginosa; assay: Antibacterial activity against Pseudomonas aeruginosa assessed as inhibition zone at 10 mg/ml; format: functional; conditions: read-out: IZ
# [6] = tested on: Escherichia coli; assay: Antibacterial activity against Escherichia coli MTCC […] by serial dilution method; format: functional
# [7] = tested on: Bacillus subtilis; assay: Antibacterial activity against Bacillus subtilis MTCC 441 by serial dilution method; format: functional
# [8] = tested on: Staphylococcus epidermidis; assay: Antibacterial activity against Staphylococcus epidermidis MTCC 6880 by serial dilution method; format: functional
# [9] = tested on: Aspergillus niger; assay: Antibacterial activity against Aspergillus niger MTCC 8189 by serial dilution method; format: functional
# [10] = tested on: Pseudomonas aeruginosa; assay: Antibacterial activity against Pseudomonas aeruginosa MTCC 424 by serial dilution method; format: functional
# [11] = tested on: Candida albicans; assay: Antibacterial activity against Candida albicans MTCC 227 by serial dilution method; format: functional
# [12] = tested on: Bacillus subtilis; assay: Antibacterial activity against Bacillus subtilis ATCC 6051 incubated for 24 hrs by broth microdilution method; format: functional
# [13] = tested on: Escherichia coli; assay: Antibacterial activity against Escherichia coli ATCC 25922 incubated for 24 hrs by broth microdilution method; format: functional
# [14] = tested on: Pseudomonas aeruginosa; assay: Antibacterial activity against Pseudomonas aeruginosa ATCC 25619 incubated for 24 hrs by broth microdilution method; format: functional
# [15] = tested on: Staphylococcus aureus; assay: Antibacterial activity against Staphylococcus aureus ATCC 12598 incubated for 24 hrs by broth microdilution method; format: functional
Structure (SMILES),zone of inhibition at 10000 µg/mL [1] [mm],zone of inhibition at 10000 µg/mL [2] [mm],zone of inhibition at 10000 µg/mL [3] [mm],zone of inhibition at 10000 µg/mL [4] [mm],zone of inhibition at 10000 µg/mL [5] [mm],MIC [6] [µM],MIC [7] [µM],MIC [8] [µM],MIC [9] [µM],MIC [10] [µM],MIC [11] [µM],MIC [12] [µg/mL],MIC [13] [µg/mL],MIC [14] [µg/mL],MIC [15] [µg/mL]
Clc1ccc(OCc2cn(Cc3cc4ccccc4nc3Cl)nn2)cc1,7,7,7,7,7,–,–,–,–,–,–,–,–,–,–
Cc1cc(O)c(C(=O)/C=C/c2ccc(OCc3cn(Cc4ccc(Br)cc4)nn3)cc2)c(=O)o1,–,–,–,–,–,3,3,3,3,3,3,–,–,–,–
CN[C@@H]1[C@H](O[C@H]2[C@H](O[C@H]3[C@H](O)[C@@H](O)[C@H](N=C(N)N)[C@@H](O)[C@@H]3N=C(N)N)O[C@@H](C)[C@]2(O)C=O)O[C@@H](CO)[C@H](O)[C@H]1O [STREPTOMYCIN],–,–,–,–,–,–,–,–,–,–,–,2,2,4,2
Cc1cc(O)c(C(=O)/C=C/c2ccc(OCc3cn(-c4ccc(Br)cc4)nn3)cc2)c(=O)o1,–,–,–,–,–,3,3,3,3,3,3,–,–,–,–
Cc1cc(O)c(C(=O)/C=C/c2ccc(OCc3cn(-c4ccc([N+](=O)[O-])cc4)nn3)cc2)c(=O)o1,–,–,–,–,–,3,3,3,3,3,3,–,–,–,–
COc1ccc2nc(Cl)c(Cn3cc(COc4ccc([N+](=O)[O-])cc4)nn3)cc2c1,7,7,7,7,7,–,–,–,–,–,–,–,–,–,–
Cc1ccc(OCc2cn(Cc3cc4cc(C)ccc4nc3Cl)nn2)cc1,7,7,7,7,7,–,–,–,–,–,–,–,–,–,–
CC(=O)Nc1ccc(OCc2cn(Cc3cc4ccccc4nc3Cl)nn2)cc1,7,7,7,7,7,–,–,–,–,–,–,–,–,–,–
Clc1ccccc1OCc1cn(Cc2cc3ccccc3nc2Cl)nn1,7,7,7,7,7,–,–,–,–,–,–,–,–,–,–
Cc1ccc2nc(Cl)c(Cn3cc(COc4ccc(Cl)c(C)c4)nn3)cc2c1,7,7,7,7,7,–,–,–,–,–,–,–,–,–,–
Cc1ccc2nc(Cl)c(Cn3cc(COc4ccc(Cl)cc4)nn3)cc2c1,7,7,7,7,7,–,–,–,–,–,–,–,–,–,–
CC(=O)Nc1ccc(OCc2cn(Cc3cc4cc(C)ccc4nc3Cl)nn2)cc1,7,7,7,7,7,–,–,–,–,–,–,–,–,–,–
Cc1cc(O)c(C(=O)/C=C/c2ccc(OCc3cn(Cc4ccc(F)cc4)nn3)cc2)c(=O)o1,–,–,–,–,–,3,3,3,3,3,3,–,–,–,–
Cc1cc(O)c(C(=O)/C=C/c2ccc(OCc3cn(Cc4ccccc4F)nn3)cc2)c(=O)o1,–,–,–,–,–,3,3,3,3,3,3,–,–,–,–
Cc1cc(O)c(C(=O)/C=C/c2ccc(OCc3cn(Cc4cccc(Br)c4)nn3)cc2)c(=O)o1,–,–,–,–,–,3,3,3,3,3,3,–,–,–,–
Cc1cc(O)c(C(=O)/C=C/c2ccc(OCc3cn(Cc4ccc([N+](=O)[O-])cc4)nn3)cc2)c(=O)o1,–,–,–,–,–,3,3,3,3,3,3,–,–,–,–
COc1ccc2nc(Cl)c(Cn3cc(COc4ccc(C)cc4)nn3)cc2c1,7,7,7,7,7,–,–,–,–,–,–,–,–,–,–
Cc1cc(O)c(C(=O)/C=C/c2ccc(OCc3cn(Cc4ccccc4C)nn3)cc2)c(=O)o1,–,–,–,–,–,3,3,3,3,3,3,–,–,–,–
Cc1ccc(OCc2cn(Cc3cc4ccccc4nc3Cl)nn2)cc1,7,7,7,7,7,–,–,–,–,–,–,–,–,–,–

Structure (SMILES),zone of inhibition at 10000 µg/mL [1] [mm],zone of inhibition at 10000 µg/mL [2] [mm],zone of inhibition at 10000 µg/mL [3] [mm],zone of inhibition at 10000 µg/mL [4] [mm],zone of inhibition at 10000 µg/mL [5] [mm],MIC [6] [µM],MIC [7] [µM],MIC [8] [µM],MIC [9] [µM],MIC [10] [µM],MIC [11] [µM],MIC [12] [µg/mL],MIC [13] [µg/mL],MIC [14] [µg/mL],MIC [15] [µg/mL]
Cc1cc(OCc2cn(Cc3cc4ccccc4nc3Cl)nn2)ccc1Cl,7,7,7,7,7,–,–,–,–,–,–,–,–,–,–
Cc1ccc(Cn2cc(COc3ccc(/C=C/C(=O)c4c(O)cc(C)oc4=O)cc3)nn2)cc1,–,–,–,–,–,3,3,3,3,3,3,–,–,–,–
Cc1ccc2nc(Cl)c(Cn3cc(COc4ccc([N+](=O)[O-])cc4)nn3)cc2c1,7,7,7,7,7,–,–,–,–,–,–,–,–,–,–
O=[N+]([O-])c1ccc(OCc2cn(Cc3cc4ccccc4nc3Cl)nn2)cc1,7,7,7,7,7,–,–,–,–,–,–,–,–,–,–
COc1ccc2nc(Cl)c(Cn3cc(COc4ccc(NC(C)=O)cc4)nn3)cc2c1,7,7,7,7,7,–,–,–,–,–,–,–,–,–,–
Cc1cc(O)c(C(=O)/C=C/c2ccc(OCc3cn(Cc4cccc([N+](=O)[O-])c4)nn3)cc2)c(=O)o1,–,–,–,–,–,3,3,3,3,3,3,–,–,–,–
Cc1cc(O)c(C(=O)/C=C/c2ccc(OCc3cn(Cc4ccccc4Br)nn3)cc2)c(=O)o1,–,–,–,–,–,3,3,3,3,3,3,–,–,–,–
Clc1nc2ccccc2cc1Cn1cc(COc2ccccc2)nn1,7,7,7,7,7,–,–,–,–,–,–,–,–,–,–
COc1ccc2nc(Cl)c(Cn3cc(COc4ccccc4)nn3)cc2c1,7,7,7,7,7,–,–,–,–,–,–,–,–,–,–
Cc1cc(O)c(C(=O)/C=C/c2ccc(OCc3cn(-c4ccccc4)nn3)cc2)c(=O)o1,–,–,–,–,–,3,3,3,3,3,3,–,–,–,–
COc1ccc2nc(Cl)c(Cn3cc(COc4ccc(Cl)c(C)c4)nn3)cc2c1,7,7,7,7,7,–,–,–,–,–,–,–,–,–,–
COc1ccc(-n2cc(COc3ccc(/C=C/C(=O)c4c(O)cc(C)oc4=O)cc3)nn2)cc1,–,–,–,–,–,3.4,3.4,3.4,3.4,3.4,3.4,–,–,–,–
COc1ccc2nc(Cl)c(Cn3cc(COc4ccc(Cl)cc4)nn3)cc2c1,7,7,7,7,7,–,–,–,–,–,–,–,–,–,–
Cc1cc(O)c(C(=O)/C=C/c2ccc(OCc3cn(Cc4cccc(F)c4)nn3)cc2)c(=O)o1,–,–,–,–,–,3,3,3,3,3,3,–,–,–,–
Cc1ccc2nc(Cl)c(Cn3cc(COc4ccccc4Cl)nn3)cc2c1,7,7,7,7,7,–,–,–,–,–,–,–,–,–,–
Cc1ccc2nc(Cl)c(Cn3cc(COc4ccccc4)nn3)cc2c1,7,7,7,7,7,–,–,–,–,–,–,–,–,–,–
COc1ccc2nc(Cl)c(Cn3cc(COc4ccccc4Cl)nn3)cc2c1,7,7,7,7,7,–,–,–,–,–,–,–,–,–,–
Cc1cccc(Cn2cc(COc3ccc(/C=C/C(=O)c4c(O)cc(C)oc4=O)cc3)nn2)c1,–,–,–,–,–,3,3,3,3,3,3,–,–,–,–
Cc1cc(O)c(C(=O)/C=C/c2ccc(OCc3cn(Cc4ccccc4[N+](=O)[O-])nn3)cc2)c(=O)o1,–,–,–,–,–,3,3,3,3,3,3,–,–,–,–
